Experiments:
[1] = Urokinase activity after foam drying and storage
Description: (7) Freeze-dried samples of Urokinase were rehydrated with 2 ml of 40 wt % sucrose. The solutions were then transferred to 20 ml sterilized glass vials for future preservation by drying. Before drying, the vials were covered with gray slotted rubber stoppers. The vials were dried inside a vacuum chamber. The vials were sitting on the surface of a stainless steel shelf inside the chamber. The shelf temperature was controlled by circulating ethylene glycol/water antifreeze at a controlled temperature inside the shelf. Before the vacuum was applied the shelf temperature was decreased to 5° C. Then the hydrostatic pressure inside the chamber was decreased to 0.5 Torr. Under such conditions, the suspension boiled for 30 min. […] Visually, under these experimental conditions, stable dry foams were formed inside the vials within 3 hours. After an additional 12 hours of drying at room temperature, the temperature was increased to 45° C. and maintained for an additional 24 hours. After that the chamber was filled with dry N2 gas, the rubber stoppers were pushed down and the vials were sealed with aluminum crimp seals.
The samples were assayed immediately after drying and after 30 days of storage at 40° C. After drying the Urokinase, activity was 93% of the initial activity. […]

[2] = Glass transition temperature of foam-dried sucrose particles; assay type: physicochemical
Description: (1) In the first test, the equipment set-up consisted of a 4.5 inch internal diameter glass tube connected to a standard Virtis SL600 Unitop condenser section and heated via two laboratory style hot plates from Coming. The opposite end of the glass tube was closed. A 200 ml solution of sucrose 50% (w/w) in de-ionized water was introduced to a 2 L PET beverage bottle, commonly used for soft drinks. This would be considered to be a semi-rigid container. The bottle was placed in the tube and the sucrose solution was preserved by foam formation. After mechanically stable foam was formed, the bottle containing the foam was held overnight at 0.3 Torr and 25° C. The next morning the vacuum was broken with air. Total process time was 23 hours. Immediately following tube disassembly, the bottle was removed from the tube and purged with dry nitrogen for approximately one minute. The bottle was capped with the accompanying plastic screw top. The foam appeared to completely fill the bottle. […] Next the bottle was struck against the laboratory counter about 8-10 times with light-moderate force. All of the foam inside broke apart into discreet particles with the visual and flow characteristics of sand. A small amount of material remained adhering to the bottle interior. The glass transition temperature of the coarse particulate material was 18° C.
(2) In a second test, the glass tube used in the first test was replaced with a jacketed glass tube. The jacket was filled with water and connected to a recirculating heater bath. The bottle used previously was replaced with a 1-gallon capacity polyethylene plastic storage bag, commonly available in supermarkets. This would be considered to be a flexible container. The bag was taped in place to a plastic holder to keep the bag open. The bag was filled with 150 ml of 50% (w/w) sucrose in de-ionized water. Primary foam drying was essentially completed 90 minutes later and the heating source switched to hot plates. Conditions at that point were 31° C. and 0.1 5 Torr. The foam was then held overnight. […]

[3] = Potency of Amphotericin after foam drying and storage
Description: (8) Freeze-dried samples of Amphotericin B were rehydrated with 5 ml 40 wt % sucrose per vial. Then the solutions were transferred into 50 ml sterilized glass vials for future preservation by drying. Before drying, the vials were covered with gray butyl slotted rubber stoppers. The vials were dried inside a vacuum chamber. The vials were placed on the surface of a stainless steel shelf inside the chamber. The shelf temperature was controlled by circulating ethylene glycol/water antifreeze at a controlled temperature inside the shelf. Before the vacuum was applied the shelf temperature was decreased to 5° C. The hydrostatic pressure inside the chamber was decreased to 0.5 Torr. Under such conditions the suspension boiled for 30 min. The temperature of the shelf was then slowly (during 30 min) increased to 25° C. Visually, stable dry foams were formed inside the vials under these experimental conditions within 3 hours. After an additional 12 hours of drying at room temperature, the chamber was filled with the dry N2 gas and the rubber stoppers in a portion of the vials were pushed down. The vials were removed from the chamber and subsequently sealed with aluminum crimped seal. The samples were assayed immediately after drying and after 30 days of storage at 27.5° and 40° C. The results are shown in Table 1, together with the results obtained in the next experiment.
Another set of freeze-dried samples of Amphotericin B was rehydrated with 5 ml 40 wt % sucrose per vial. The solutions were then transferred into sterilized glass vials for future preservation by drying similar to that described above with additional drying at 45° C. for additional 24 hours. After that, the chamber was filled again with the dry N2 gas, the rubber stoppers were pushed down and the vials were sealed. The samples were assayed right after drying and after 30 day of storage at 27.5° and 40° C.

**Q.** Which “activity, % of the initial activity” value ([1]; after 30 days of storage at 40° C.) does the source give for Urokinase here?
**A.** Its value is 90%.

**Q.** What about the “activity, % of the initial activity” value ([1]; after drying (40 wt % sucrose, up to 45° C.)) of the same molecule?
**A.** The value was 93%.

**Q.** With `OC[C@H]1O[C@@](CO)(O[C@H]2O[C@H](CO)[C@@H](O)[C@H](O)[C@H]2O)[C@@H](O)[C@@H]1O` [sucrose] as the molecule, how does the glass transition temperature ([2]; 150 ml 50% (w/w) in 1-gallon polyethylene bag, 31° C., total 71 hours) read?
**A.** Its glass transition temperature is 18.33 °C.

**Q.** And the glass transition temperature ([2]; 200 ml 50% (w/w) in 2 L PET bottle, held overnight at 0.3 Torr and 25° C., total 23 hours)?
**A.** Its glass transition temperature is 18 °C.

**Q.** What about the glass transition temperature ([2]; 300 ml 50% (w/w) in larger bag, up to 55° C. and 0.2 Torr, total 23.5 hours) of the same molecule?
**A.** Its glass transition temperature is 33.3 °C.

**Q.** With `C[C@@H]1[C@H](O)[C@@H](C)/C=C/C=C/C=C/C=C/C=C/C=C/C=C/[C@H](O[C@@H]2O[C@H](C)[C@@H](O)[C@H](N)[C@@H]2O)C[C@@H]2O[C@](O)(C[C@@H](O)C[C@@H](O)[C@H](O)CC[C@@H](O)C[C@@H](O)CC(=O)O[C@H]1C)C[C@H](O)[C@H]2C(=O)O` [Amphotericin, Amphotericin B] as the molecule, how does the “Potency of Amphotericin (%)” value ([3]; Control) read?
**A.** The value was 126%.

**Q.** What about the “Potency of Amphotericin (%) After 30 days at 27.5° C.” value ([3]; Td = 25° C.) of the same molecule?
**A.** Its value is 114%.

**Q.** What about the “Potency of Amphotericin (%) After 30 days at 40° C.” value ([3]; Td = 25° C.) of the same molecule?
**A.** The value was 95%.

**Q.** And the “Potency of Amphotericin (%) After drying” value ([3]; Td = 25° C.)?
**A.** The value was 108%.

**Q.** And the “Potency of Amphotericin (%) After 30 days at 27.5° C.” value ([3]; Td = 45° C.)?
**A.** The value was 102%.

**Q.** What about the “Potency of Amphotericin (%) After 30 days at 40° C.” value ([3]; Td = 45° C.) of the same molecule?
**A.** Its value is 104%.

**Q.** And the “Potency of Amphotericin (%) After drying” value ([3]; Td = 45° C.)?
**A.** Its value is 103%.

From patent US6692695B1, “Industrial scale barrier technology for preservation of sensitive biological materials” (Quadrant Drug Delivery Limited, priority 1999, dated 2004)
